Laboratory results reported in paper PMC12040169 (PLOS Biology, 2025).

Test: in vitro
Settings: human, hela cells, % viability

SMILES	viability at 28.5 h, 10 µM [%]
COc1ccc2c(c1)Cc1sc(NC(C)=O)nc1-2 [CBK287876]	93.8
N/C(=N/OC(=O)c1ccc2nsnc2c1)c1ncon1 [CBK263847]	105
CSCCN1CCC(Oc2nccnc2OC2CCCCC2)CC1 [CBK082873T]	97
O=C(Nc1ccccc1)c1ccc(N2CCN(c3ccccn3)CC2)c(S(=O)(=O)N2CCOCC2)c1 [CBK266810]	91.7
Cc1cc(NC(=O)CN2CCC(Cc3ccccc3)CC2)nc2c1c(=O)oc1ccccc12 [CBK291261]	87.2
CCOC(=O)C1(C2CCCCC2)CCN(C(=O)c2cc[nH]c2)CC1 [CBK137103]	92.1
CCOC(=O)C1(C2CCCCC2)CCN(C(=O)C2CCN(C)CC2)CC1 [CBK136948]	92.7
CC(=O)C1=C(C)NC(SCC(=O)c2ccc(F)cc2)=C(C#N)C1c1sccc1C (stereo not drawn) [CBK262624]	95.6
NC(=O)C1(Cc2cccc(-c3cccs3)c2)CCN(C(=O)CCc2ccccc2)CC1 [CBK285782]	91.3
CC1(C)OC2C(C(=O)O)OC(n3cnc4c(N)ncnc43)C2O1 (stereo not drawn) [CBK262912]	96.2
CN(C)S(=O)(=O)c1cc(C(=O)NCCc2c[nH]c3ccccc23)c(Cl)cc1Cl [CBK265883]	87.5
Cc1ncc([N+](=O)[O-])n1CCSc1nnc(SCc2ccccc2)s1 [CBK264751]	86.4
N#Cc1ccccc1CSc1nc2ccc(NC(=O)c3ccc([N+](=O)[O-])cc3)cc2s1 [CBK265868]	90.7
O=C(COc1ccccc1)Nc1ccc2n(c1=O)C[C@H]1C[C@@H]2CN(C(=O)c2ccccc2)C1 [CBK289079]	76.6
O=C(Cc1c[nH]c2ccccc12)NC(Cc1ccccc1)C(=O)O (stereo not drawn) [CBK286770]	120
Cn1nc(-c2ccc(S(=O)(=O)Nc3ncc([N+](=O)[O-])s3)s2)cc1C(F)(F)F [CBK067542]	109
O=C(O)c1ccc2c(c1)c(C(C(=O)O)N1CCCC1)cn2Cc1ccccc1 (stereo not drawn) [CBK286633]	90.1
O=C(O)C(c1c[nH]c2ccccc12)N1CCN(Cc2ccncc2)CC1 (stereo not drawn) [CBK286624]	76.2
CN(CC1CCCC1)c1nccc(N2CCN[C@H]3CS(=O)(=O)C[C@H]32)n1 [CBK307060]	83.9
CN1CCN(c2cccc(-c3cc(C(F)(F)F)cc(C(F)(F)F)c3)n2)CC1 [CBK036982]	93.3
Cc1nc(CN2CCN(c3cccc(C(F)(F)F)n3)CC2)cs1 [CBK304709]	93.9
Cn1c(CNC2CCCCC2)nc2ccccc21 [CBK058416]	111

SMILES	viability at 28.5 h, 10 µM [%]
FC(F)(F)c1ccc(SCc2cccs2)nc1 [CBK103711]	96.3
Cn1c(N2CC[C@H](O)C2)nc2cc(C(=O)NC3CCNCC3)ccc21 [CBK306873]	98.1
O=C(Nc1ccc(S(=O)(=O)N2CCCCC2)cc1)c1ccc(CN2CCc3ccccc3C2)cc1 [CBK263993]	90.7
CC(=O)Nc1cccc(-n2nnnc2SCCCCCF)c1 [CBK306164]	110
Cc1cc(=O)oc2cc(OC(C)C(=O)NCC(=O)O)ccc12 (stereo not drawn) [CBK286829]	106
CC1(C)OC(NC2CC3CCC2C3)=NC1=O (stereo not drawn) [CBK092237]	82.8
CC(C)Cc1[nH]nc(O)c1-c1ccccc1 [CBK075134]	103
Cc1cnc(CNC(=O)N2CCN(C3CCN(C)CC3)CC2)cn1 [CBK155886]	91.3
O=C(c1ccccc1NS(=O)(=O)c1ccc(Br)cc1)N1CCOCC1 [CBK043340]	100
Cc1nn(C)c(C)c1CN1CCN(C(=S)Nc2ccc(S(N)(=O)=O)cc2)CC1 [CBK267030]	94.1
CC(=O)Nc1nc(-c2cc3ccccc3oc2=O)cs1 [CBK287312]	106
Cc1nccn1CCC(=O)NCCc1ccc(N(C)C)cc1 [CBK281954]	82.6
NS(=O)(=O)c1ccc(CNC(=O)c2ccccc2Nc2cccc(C(F)(F)F)c2)cc1 [CBK149579]	94.4
Cn1cc(CCNC(=O)Nc2ccc(N3CCCCC3)nc2)cn1 [CBK305656]	95.2
Nc1ncnc2c1[nH]c(=O)n2[C@H]1C[C@@H](O)[C@@H](CO)O1 [CBK201284]	98.3
COc1ccc(-c2nc(COC(=O)c3cccnc3N)cs2)cc1OC [CBK296741]	82.6
Cc1nc(S(=O)(=O)N2CCC(C(=O)N3CCCC3)CC2)cn1C [CBK305786]	88.3
O=[N+]([O-])c1cccc(-c2cc(Nc3ccc4[nH]ccc4c3)ncn2)c1 [CBK090860]	108
COc1ccc(NC(=O)CCn2ccc3ccncc32)c(C)c1 [CBK282860]	109
Cc1nc2cc(OCc3nc(C(=O)NCC(O)CO)co3)ccc2s1 (stereo not drawn) [CBK307067]	102
NC(=O)N/N=C/c1cc(Br)cs1 [CBK026434]	81.8
CCCCN(C)c1c(C)nc2c(OCC3CCCCO3)cccn12 (stereo not drawn) [CBK147180]	103

SMILES	viability at 28.5 h, 10 µM [%]
OC1CCC(Nc2cncc(-c3ccc(F)cc3F)n2)CC1 (stereo not drawn) [CBK065835]	107
CSc1ncc(Cl)c(C(=O)Nc2sc3c(c2C(=O)NCc2ccccc2)CCCC3)n1 [CBK268976]	99.5
N#C/C(=C\c1cn(-c2ccccc2)nc1-c1cccc(S(=O)(=O)N2CCCC2)c1)c1nc2ccccc2c(=O)[nH]1 [CBK266296]	91.9
O=C1CNC(=O)C2(C/C=C/C[C@H]3COCC[C@H]3N1)CCN(CCOc1ccccc1)CC2 [CBK292077]	107
CCOc1ccc(C(=O)NC2CC3CCC(C2)N3Cc2ccc(OC)cc2)cc1 (stereo not drawn) [CBK121398]	109
COCc1cc(C)nc2c1C(=O)NC(c1ccccc1C(=O)O)N2Cc1ccccc1 (stereo not drawn) [CBK286599]	92.3
Cc1cc(F)c(S(N)(=O)=O)cc1NC(=O)c1ccc(CN2CCOCC2)o1 [CBK059376C]	97.7
COC(C)CN(C)C(=O)c1nnn(-c2ccc3ncccc3c2)c1C (stereo not drawn) [CBK304484]	85.8
COc1ccc(C(C)C)cc1-c1ccc(NS(C)(=O)=O)c2ccccc12 [CBK083747]	97.8
COCCNc1nc2c([nH]1)c(=O)n(C)c(=O)n2C [CBK288104]	90.3
Cc1cccc(-c2nnn(CC(=O)O)n2)c1 [CBK068105]	102
Cc1cc(CN2CC3CCCN3C[C@@H]2C)c(C)n1CC1CCCO1 (stereo partly drawn) [CBK285419]	82
O=C(Cn1nc(C(=O)O)c2ccccc2c1=O)c1ccc(C2CCCCC2)cc1 [CBK297538]	89.5
O=C1CCCN1c1ccc(CN2CCC(O)(c3ccccc3)C2)cc1 (stereo not drawn) [CBK282808]	98.4
O=C(NCc1cccnc1)c1cc(S(=O)(=O)N2CCCC2)c(Cl)cc1Cl [CBK264455]	108
c1ccc(-c2n[nH]c(-c3ccncc3)c2-c2nc3ccccc3[nH]2)cc1 [CBK262180]	88
c1cc(CCNc2nccn3ccnc23)ccn1 [CBK037976]	99.2
COc1cc(CNC(=O)N2CCN(CCc3ccccc3)CC2)cc(OC)c1OC [CBK158910]	91.8
COc1ccc(S(=O)(=O)N2CCCC(C(=O)NCc3ccc4c(c3)OCO4)C2)cc1Cl (stereo not drawn) [CBK268230]	89.1
Cc1cc2c(SCc3cc(O)[nH]n3)ncnc2s1 [CBK269799]	93.9
COc1cc(F)ccc1-c1ccc(NS(C)(=O)=O)c2ccccc12 [CBK083744]	97.9
COc1ccc(C(=O)OC(C)(C)C)c(-c2cncc(N3CCN(CCO)CC3)n2)c1 [CBK037239]	101

SMILES	viability at 28.5 h, 10 µM [%]
CCNC(=O)C1(NC(=O)Cc2cn3cccc(C)c3n2)CCCCC1 [CBK304933]	106
Cc1ccc(C(=O)C2=C(O)C(=O)N(CCN(C)C)C2c2ccccn2)o1 (stereo not drawn) [CBK266536]	119
O=C(NCc1cccnc1-n1cccn1)c1c[nH]c(C(=O)N2CCCC2)c1 [CBK298263]	99.1
Cc1cc(C)c(S(=O)(=O)NC(C)C)c(C)c1-n1cnnn1 [CBK270197]	96.5
O=c1c2sc(-c3ccc(F)cc3)cc2ncn1CC1(O)CCCNC1 (stereo not drawn) [CBK306525]	88.4
COc1ccc(Cn2cnc3[nH]ncc3c2=O)cc1 [CBK288049]	91.7
O=C(Nc1cccc2ccccc12)/C(=C\c1ccco1)NC(=O)c1ccc(Br)cc1 [CBK264587]	104
O=C1CCC(=O)N1CCOc1nccnc1OC1CCN(Cc2ccc(C(F)(F)F)cc2)CC1 [CBK084341]	96
COc1ccc(-c2cc(C(=O)NCC(=O)O)c(C)o2)cc1OC [CBK287130]	86.7
CCOC(=O)C1CSCCN1C(=O)c1ccc(-n2nc(C)cc2C)cc1 (stereo not drawn) [CBK304517]	86.4
Cc1nc(C)n(CC2CN(Cc3cn4ccccc4n3)CCO2)n1 (stereo not drawn) [CBK303999]	97.1
O=C(CSc1n[nH]c(=O)[nH]c1=O)N/N=C/c1cccs1 [CBK263508]	98.9
C[C@@H]1CN(C(=O)c2cn(C)c3ccccc23)C[C@H](C)O1 [CBK200235]	88.9
O=C(OCc1ccccc1)N1CCC(C(=O)N(CCc2ccccc2)Cc2ccccc2)CC1 [CBK171978]	92.5
Cn1nccc1C(=O)C1CCN(C(=O)c2cccs2)CC1 [CBK284424]	95.1
CC(C)(C)S(=O)(=O)Cc1noc(-c2ccc(Cl)nc2)n1 [CBK089825]	98.9
O=C(NCc1nc2ccccc2s1)c1ccc2c(c1)OCCO2 [CBK295325]	107
Cc1sc2c(C3CCN(C(=O)C4CC4C)CC3)nc(C)n2c1C (stereo not drawn) [CBK285299]	66.4
Cc1ccc(NC2C=CS(=O)(=O)C2)cc1 (stereo not drawn) [CBK057487]	89.5
Nc1n[nH]c(SCC(=O)N2CCN(C(c3ccccc3)c3ccccc3)CC2)n1 [CBK267893]	86.5

Same assay, conditions: human, hela cells, % viability, bulk resorufin, single well

SMILES	viability at 28.5 h, 10 µM [%]
Cc1cc(/C=C2\C(=O)NC(=O)N(c3cccc(F)c3)C2=O)c(C)n1-c1cc(C(=O)O)cc(C(=O)O)c1 [CBK264041]	97.3
